Data from patent US20160303189A1, “Applications of Recombined Ganoderma Lucidum Immunoregulation Protein in Preparing Drugs for Treating Tissue Fibrosis” (priority 2014, published 2016).

Tested on: myocardial tissue of mice (myocardial fibrosis model)
Assay: Establishment of Dox mice myocardial fibrosis models, histological grading;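 further: mice given Dox by injection twice weekly, hearts fixed in paraformaldehyde and scored histologically, with sampling on days 35, 42 and 49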
[1] = Dox accumulated dose 30, 10 mice
[2] = Dox accumulated dose 36, 10 mice
[3] = Dox accumulated dose 42 (3 mg/kg twice a week for 7 weeks), 9 mice

Procedure: 100 female Kunming mice weighed 18-22 g were picked and divided into 5 groups: saline group, model group 1 (Dox 1 mg/kg), model group 2 (Dox 2 mg/kg), model group 3 (Dox 3 mg/kg) model group 4 (Dox 4 mg/kg), the number of mice in each group were 15, 15, 25, 30 and 15. Twice a week, every mouse was injected 2000 every time, in which 1 mg/kg Dox, 2 mg/kg Dox, 3 mg/kg Dox or 4 mg/kg Dox was dissolved.
The activities of the mice were closely watched and deaths of the mice were recorded every day at 5:00 pm and 9:00 am. Three days, the 35th the 42nd and the 49th day were chosen to take samples. After deaths, hearts of the mice were taken and rinsed with cold PBS and placed on a clean dry filter paper, then they were put into paraformaldehyde solution to be fixed. The models to assess myocardial fibrosis were established according to histological analysis, the changes in ventricular cavity of the mice, perivascular fibrosis, interstitial fibrosis, and vacuole formation and other changes were taken into consideration to determine whether the model was useable.

COc1cccc2c1C(=O)c1c(O)c3c(c(O)c1C2=O)C[C@@](O)(C(=O)CO)C[C@@H]3O[C@H]1C[C@H](N)[C@H](O)[C@H](C)O1 [Doxorubicin]
10: Vacuolization grade 0, number of mice [1] | Interstitial Fibrosis grade 0, number of mice [2]
0: Interstitial Fibrosis grade +++, number of mice [1] | Interstitial Fibrosis grade ++, number of mice [1] | Number of deaths [1] | Perivascular Fibrosis grade +++, number of mice [1] | Perivascular Fibrosis grade ++, number of mice [1] | Vacuolization grade +++, number of mice [1] | Vacuolization grade ++, number of mice [1] | Vacuolization grade +, number of mice [1] | Interstitial Fibrosis grade +++, number of mice [2] | Interstitial Fibrosis grade ++, number of mice [2] | Interstitial Fibrosis grade +, number of mice [2] | Number of deaths [2] | Perivascular Fibrosis grade +++, number of mice [2] | Vacuolization grade +++, number of mice [2] | Vacuolization grade ++, number of mice [2] | Number of deaths [3]
9: Interstitial Fibrosis grade 0, number of mice [1] | Vacuolization grade 0, number of mice [2]
4: Perivascular Fibrosis grade 0, number of mice [3] | Vacuolization grade 0, number of mice [3]
7: Perivascular Fibrosis grade 0, number of mice [1] | Perivascular Fibrosis grade 0, number of mice [2]
5: Interstitial Fibrosis grade 0, number of mice [3]
1: Interstitial Fibrosis grade +, number of mice [1] | Perivascular Fibrosis grade ++, number of mice [2] | Vacuolization grade +, number of mice [2] | Interstitial Fibrosis grade +++, number of mice [3] | Interstitial Fibrosis grade +, number of mice [3] | Perivascular Fibrosis grade +++, number of mice [3] | Vacuolization grade +++, number of mice [3]
3: Perivascular Fibrosis grade +, number of mice [1]
2: Perivascular Fibrosis grade +, number of mice [2] | Interstitial Fibrosis grade ++, number of mice [3] | Perivascular Fibrosis grade ++, number of mice [3] | Perivascular Fibrosis grade +, number of mice [3] | Vacuolization grade ++, number of mice [3] | Vacuolization grade +, number of mice [3]
